Source: patent US12297163B2, “Glycerol derivative, preparation method therefor, and immunomodulator comprising same as effective ingredient” (ENZYCHEM LIFESCIENCES CORPORATION, priority 2018, dated 2025)

Experiments:
IL-6 = test: LPS-induced IL-6 secretion in RAW264.7 cells (ELISA); assay type: cell-based, mouse; details: for IL-6 concentration (average ± deviation): then LPS 1 μg/ml, 24 hours
Experimental: In DMEM (Hyclone, Thermo Scientific) medium to which 10% Fetal Bovine Serum was added, RAW264.7 cells, a mouse macrophage family, were suspended at a concentration of 1×10^5 cells/ml, and the cells were maintained in a 5% CO2 humidified incubator at 37° C., and cultured. The cultured RAW264.7 cells were inoculated into a 48 well plate by 5×10^4 cells/ml and stabilized for 15 hours. Then, the culture solution was treated with a glycerol derivative compounds of the type shown in Table 2 and 3 below for 1 hour and then was treated with 1 μg/ml of Lipopolysaccaride (LPS) of a cell stimulator, and subsequent further incubation was conducted for 24 hours. Thereafter 0.5 ml of the culture supernatant was collected for each well and centrifuged (at 3000 rpm, 5 minutes) to recover the supernatant. The IL-6 level in the recovered supernatant was measured according to the manual provided by the Mouse IL-6 ELISA set (BD Biosciences). The day before ELISA was carried out, the IL-6 capture antibody was diluted in phosphate buffered saline, coated on a microwell, and then stored at 4° C. overnight. Each well was washed three times with a washing buffer solution and then blocked with 2% Bovine Serum Albumin (BSA) for 1 hour at room temperature. After washing with buffer solution three times, 100 μl of sample was dispensed into each well and left at room temperature for 2 hours. Detection antibody which was washed 3 times with washing buffer solution and diluted was dispensed into each well and allowed to react at room temperature for 1 hour and left at room temperature for 1 hour. Thereafter, the secondary HRP conjugated antibody was reacted at room temperature for 30 minutes, washed three times with a washing buffer solution, and treated with 50 μl of stop solution for each well, and then the optical density was measured at 450 nm with an ELISA microplate leader.

STAT6 = test: IL-4-induced STAT6 activity, pGL4-STAT6 luciferase reporter in A549 cells; assay type: cell-based
Experimental: In DMEM (Dulbecco Modified Eagle Medium, Hyclone, Thermo Scientific) medium to which 10% Fetal Bovine Serum was added, A549 cells were subcultured at a concentration of 1×10^5 cells/ml, and the cells were maintained in a 5% CO2 humidified incubator at 37° C., and cultured. The cultured A549 cells were inoculated into a 48 well plate by 1×10^5 cells/ml and stabilized for 18 hours. Thereafter, pGL4-STAT6 reporter vector containing a STAT6 binding promoter portion was mixed with Attractene to induce complex formation at room temperature for 15 minutes. This complex was treated with the cells and then further incubated for 24 hours. Thereafter, the culture solution was treated with a glycerol derivative compounds of the type shown in Table 8 and Table 9 below for 1 hour in the culture solution, and then IL-4 (2 ng/ml or 10 ng/ml) was further incubated for 20 hours for STAT6 activity. Thereafter, the culture supernatant was removed for each well, and the remaining cells were lysed with a cell lysis buffer, and then cell lysate was recovered. 90 μl of luciferase reagent was mixed with 10 μl of the recovered cell lysate, and the degree of fluorescence was confirmed using a luminometer.

IL-4 = test: PKC activator-induced IL-4 secretion in EL-4 cells (ELISA); assay type: cell-based, mouse; details: Table 11, sample 100 μg/ml for 2 hours, then PKC activator, 18 hours
Experimental: Thereafter 0.5 ml of the culture supernatant was collected for each well and centrifuged (at 3000 rpm, 5 minutes) to recover the supernatant. […] Thereafter, the secondary HRP conjugated antibody was reacted at room temperature for 30 minutes, washed three times with a washing buffer solution, and treated with 50 μl of stop solution for each well, and then the optical density was measured at 450 nm with an ELISA microplate leader.

HL-60 cells = test: Migration of HL-60 cell line using Transwell; assay type: cell-based, human
Experimental: Then, the culture solution was treated with a glycerol derivative compounds of the type shown in Table 7 below for 1 hour and then was treated with Gemcitabine (2 μg/ml) of a cell stimulator, and subsequent further incubation was conducted for 24 hours. Thereafter 1.5 ml of the culture supernatant was collected for each well and centrifuged (at 3000 rpm, 5 minutes) to recover the supernatant. […] The day before Transmigration assay was carried out, a 1× Lamin I solution was treated in the upper Invasion Chamber and coated. […] Thereafter the upper chamber was removed, and the cells were attached to the bottom of the lower chamber by a centrifuge, and then the supernatant was removed. Cell dissociation/Calcein-AM solution was added and reacted for 1 hour. Then, the value obtained using a fluorescence spectroscopy was calculated by converting the number of cells.

STAT3 [1] = test: STAT3 activity, pGL4.47 [luc2P/SIE/Hygro] luciferase reporter in RAW264.7 cells; assay type: cell-based, mouse
Experimental: Thereafter, the culture supernatant was removed for each well, and the remaining cells were lysed with a cell lysis buffer, and then cell lysate was recovered. 90 μl of luciferase reagent was mixed with 10 μl of the recovered cell lysate, and the degree of fluorescence was confirmed using a luminometer.

STAT3 [2] = test: IL-6-induced STAT3 activity, SEAP expression in HEK-Blue IL-6 cells; assay type: cell-based; details: for STAT3 activity SEAP expression(%) (average ± deviation): negative control = 100
Experimental: Two experiments were conducted as a method of confirming STAT3 activity. First, HEK-Blue™ IL-6 cells were used to confirm the degree of activity by STAT3-induced SEAP (secreted embryonic alkaline phosphatase) expression. Second, this is a method to check the degree of STAT3 activity by injecting the pGL4.47 [luc2P/SIE/Hygro] vector containing the sis-inducible element that binds to STAT3 into RAW264.7 cells. Table 4 below confirmed the STAT3 activity inhibitory ability of the derivative compound of the present invention using the first method.
In DMEM (Hyclone, Thermo Scientific) medium to which 10% Fetal Bovine Serum was added, HEK-Blue™ IL-6 cells were cultured at a concentration of 1×10^5 cells/ml, and the cells were maintained in a 5% CO2 humidified incubator at 37° C., and cultured. The cultured HEK-Blue™ IL-6 cells were inoculated by 1×10^5 cells/ml, and treat with a glycerol derivative compounds of the type shown in Table 3 below in the culture solution for 1 hour, and then IL-6 (5 ng/ml) was further incubated for 24 hours for STAT3 activity. Thereafter, the culture supernatant was collected for each well and centrifuged (at 3000 rpm, 5 minutes) to recover the supernatant. The SEAP expression level in the recovered supernatant was mixed with Quanti blue reagent and the supernatant at a ratio of 1:10 and left at 37° C. for about 30 minutes. Then, the SEAP concentration was confirmed at 650 nm wavelength using a spectrophotometer, and the results thereof are shown in Table 4 below.

CXCL8 (IL-8) = CXCL8 (IL-8) expression in Gemcitabine-stimulated THP-1 cells (ELISA); assay type: cell-based, human
Experimental: Thereafter 1.5 ml of the culture supernatant was collected for each well and centrifuged (at 3000 rpm, 5 minutes) to recover the supernatant.

## CCCCC/C=C\C/C=C\CCCCCCCC(=O)OC(COC(C)=O)COC(=O)CCCCCCCCCCCCCCC (stereo not drawn) [EC-18, 1-palmitoyl-2-linoleoyl-3-acetylglycerol]
IL-6; LPS-stimulated
  decrease of IL-6 expression/secretion compared to the LPS-treated group: about 30%
IL-6; Table 2, sample 100 μg/ml for 1 hour
  IL-6 concentration (average ± deviation): 0.194 ± 0.011 ng/mL
IL-6; Table 3, sample 100 μg/ml for 1 hour
  IL-6 concentration (average ± deviation): 1.159 ± 0.036 ng/mL
STAT6; IL-4-treated
  reduction of STAT6 activity: about 50%
STAT6; Table 9, sample 100 μg/ml for 1 hour, then IL-4 10 ng/ml, 20 hours
  STAT6 activity_Luciferase activity (average ± deviation): 1281.5 ± 26.1
IL-4
  IL-4 concentration (average ± deviation): 189.8 ± 38.5 pg/µL
HL-60 cells; Transwell, comparison with negative control group or EC-18 (PLAG)
  reduction of HL-60 cell migration, result in words: reduced to a degree similar to that of the negative control group
STAT3 [1]; LPS-treated
  decrease of STAT3 activity: about 50%
STAT3 [1]; sample 100 μg/ml for 1 hour, then LPS 1 μg/ml, 18 hours, negative control = 100.00
  STAT3 activity_Luciferase activity (average ± deviation): 393.64 ± 46.12
STAT3 [2]
  decrease of STAT3 activity compared to the IL-6-treated group: about 25%
STAT3 [2]; sample 100 μg/ml for 1 hour, then IL-6 5 ng/ml, 24 hours
  STAT3 activity SEAP expression(%) (average ± deviation): 173.0 ± 7.9%
CXCL8 (IL-8)
  reduction of CXCL8 expression: about 20%

## Nc1ccn([C@@H]2O[C@H](CO)[C@@H](O)C2(F)F)c(=O)n1 [Gemcitabine]
HL-60 cells; Gemcitabine-treated THP-1 cells
  increase of neutrophil cell migration compared to the negative control group: increased by about twice

## IL-6: IL-6 cytokine used to induce STAT3 activity
STAT3 [2]; IL-6 5 ng/ml alone
  STAT3 activity SEAP expression(%) (average ± deviation): 228.8 ± 17.0%

B1: IL-4: IL-4 used to induce STAT6 activity in A549 cells (protein, UniProt P05112 25-153, looked up)
Interleukin-4: HKCDITLQEIIKTLNSLTEQKTLCTELTVTDIFAASKNTTEKETFCRAATVLRQFYSHHEKDTRCLGATAQQFHRHKQLIRFLKRLDRNLWGLAGLNSCPVKEANQSTLENFLERLKTIMREKYSKCSS
STAT6; Table 9, IL-4 alone, concentration printed 10
  STAT6 activity_Luciferase activity (average ± deviation): 2134.5 ± 17.6
